Experimental data: patent US11096985B2, “Antimicrobial peptides, their variants and uses” (priority 2015, dated 2021)
Where a SMILES comes first, the peptide text is derived from it. [ ]: non-standard residue; d: D form.

Legend:
[1] = tested on: clinical strains of Klebsiella pneumoniae; experiment: MIC, clinical strains of K. pneumoniae; type: cell-based; design: unit: μg/ml; details: microdilution, Muller Hinton broth-cation adjusted, 0.02% BSA, 0.2% acetic acid
In short: (§1)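 MH broth; 5.0×10^5 cfu/ml; peptides 0.125–128 μg/ml; 37° C., 20–24 h; visual no-growth endpoint. Fungal MICs in potato dextrose broth.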

[2] = tested on: clinical strains of Escherichia coli; experiment: MIC, clinical strains of E. coli; type: cell-based; design: unit: μg/ml; details: microdilution, Muller Hinton broth-cation adjusted, 0.02% BSA, 0.2% acetic acid
In short: as §1

[3] = tested on: clinical strains of C. quillermondiae; experiment: MIC, clinical yeast strains, C. quillermondiae; type: cell-based; details: C. quillermondiae clinical yeast strain 1
In short: as §1

[4] = tested on: clinical strains of C. glabrata; experiment: MIC, clinical yeast strains, C. glabrata; type: cell-based, Candida glabrata; design: unit: μg/ml
In short: as §1

[5] = tested on: clinical strains of Candida albicans; experiment: MIC, clinical yeast strains, Candida albicans; type: cell-based; design: unit: μg/ml
In short: as §1

[6] = tested on: clinical strains of C. parapsilosis; experiment: MIC, clinical yeast strains, C. parapsilosis; type: cell-based, Candida parapsilosis; design: unit: μg/ml
In short: as §1

[7] = tested on: clinical strains of Streptococcus pneumoniae; experiment: MIC, clinical strains of Streptococcus pneumoniae; type: cell-based; design: unit: µg/mL; details: microdilution, Muller Hinton broth-cation adjusted, 0.02% BSA, 0.2% acetic acid
In short: as §1

[8] = tested on: clinical strains of Enterobacter cloacae; experiment: MIC, clinical strains of Enterobacter cloacae; type: cell-based; design: unit: μg/ml; details: microdilution, Muller Hinton broth-cation adjusted, 0.02% BSA, 0.2% acetic acid
In short: as §1

[9] = tested on: clinical strains of Acinetobacter baumannii; experiment: MIC, clinical strains of Acinetobacter baumannii; type: cell-based; details: microdilution, Muller Hinton broth-cation adjusted, 0.02% BSA, 0.2% acetic acid
Experimental: Minimum inhibition concentrations (MICs) were determined against Escherichia coli (ATCC 25922), Staphylococcus aureus (ATCC 25923), Klebsiella pneumoniae (ATCC 10031) and Pseudomonas aeruginosa (ATCC 27853). Also clinical strains of E. coli, K. pneumoniae, E. cloacae, P. aeruginosa, Serratia marcescens, Proteus mirabilis, S. pneumoniae, Acinetobacter baumannii, A. johnsonii and S. aureus were used for MICs assays. Additionally, clinical strains of yeast including Candida albicans, C. glabrata, C. parapsilosis and C. quillermondiae were used. The susceptibility of these microorganisms to Chain peptides were determined using micro broth dilution assay. Colonies of the respective microorganism from Muller Hinton (MH) agar plates incubated overnight were suspended in MH broth media and final concentration of microorganism was adjusted to 5.0×10^5 cfu/ml. An aliquot of 10 μl of each Chain peptide, or gentamicin, tetracycline as reference antibiotics were added in differing concentrations along with 90 μl of bacterial suspension to 96 well polypropylene plates and incubated at 37° C. for 20 to 24 hours. Concentrations of Chain peptides and reference antibiotics ranged from 0.125 to 128 μg/ml and the MICs were recorded as the lowest concentration with no visual growth of bacteria. Similarly, antifungal MICs were tested in Potato dextrose broth.
Clinical strains of yeasts including Candida albicans, C. glabrata, C. parapsilosis and C. quillermondiae were also tested with the 12 Chain peptides. The minimum inhibitory concentration (MICs) varied between these peptides and are presented in Tables 4a, 4b, 4c and 5a, 5b, 5c. Peptides Chain 105, 201 and 308 are broad spectrum antimicrobials with MICs between 0.5-32 μg/ml against all the bacteria and yeasts tested, except Serratia marcescens and Proteus mirabilis, against which the MICs were between 64-128 μg/ml. Peptide Chain 306 has narrow spectrum activity against E.coli at 1 μg/ml and for the rest of the bacterial strains at >32 μg/ml (FIG. 10).

[10] = tested on: clinical strains of Serratia marcescens; experiment: MIC, clinical strains of Serratia marcescens; type: cell-based; design: unit: µg/mL; details: microdilution, Muller Hinton broth-cation adjusted, 0.02% BSA, 0.2% acetic acid
In short: as §1

[11] = tested on: clinical strains of Proteus mirabilis; experiment: MIC, clinical strains of Proteus mirabilis; type: cell-based; design: unit: µg/mL; details: microdilution, Muller Hinton broth-cation adjusted, 0.02% BSA, 0.2% acetic acid
In short: as §1

[12] = tested on: clinical strains of Staphylococcus aureus; experiment: MIC, clinical strains of S. aureus; type: cell-based; design: unit: μg/ml; details: microdilution, Muller Hinton broth-cation adjusted, 0.02% BSA, 0.2% acetic acid
In short: as §1

[13] = tested on: clinical strains of Pseudomonas aeruginosa; experiment: MIC, clinical strains of P. aeruginosa; type: cell-based; design: unit: μg/ml; details: microdilution, Muller Hinton broth-cation adjusted, 0.02% BSA, 0.2% acetic acid
In short: as §1

## CC[C@@H](C)[C@@H](NC(=O)[C@@H](Cc1c[nH]c2ccccc12)NC(=O)[C@H](N)CCCCN)C(=O)N[C@@H](C(=O)N[C@H](Cc1c[nH]c2ccccc12)C(=O)N[C@H](CCCNC(=N)N)C(=O)N[C@H](Cc1c[nH]c2ccccc12)C(=O)N[C@H](CCCNC(=N)N)C(=O)N[C@H](Cc1ccccc1)C(=O)N[C@H](CCCCN)C(=O)N[C@H](CCCNC(=N)N)C(=O)O)C(C)C [Chain201D] (H-[dK][dW][dI][dV][dW][dR][dW][dR][dF][dK][dR]-OH)
[1]; Klebsiella pneumoniae clinical strain 1
  Minimum inhibitory concentration: 2
[1]; Klebsiella pneumoniae clinical strain 2
  Minimum inhibitory concentration: 2
[1]; Klebsiella pneumoniae clinical strain 3
  Minimum inhibitory concentration: 4
[1]; Klebsiella pneumoniae clinical strain 4
  Minimum inhibitory concentration: 4
[1]; Klebsiella pneumoniae clinical strain 5
  Minimum inhibitory concentration: 2
[2]; Escherichia coli clinical strain 1
  Minimum inhibitory concentration: 16
[2]; Escherichia coli clinical strain 2
  Minimum inhibitory concentration: 1
[2]; Escherichia coli clinical strain 3
  Minimum inhibitory concentration: 1
[2]; Escherichia coli clinical strain 4
  Minimum inhibitory concentration: 1
[2]; Escherichia coli clinical strain 5
  Minimum inhibitory concentration: 1
[3]
  Minimum inhibitory concentration: 8
[4]; C. glabrata clinical yeast strain 1
  Minimum inhibitory concentration: 8
[4]; C. glabrata clinical yeast strain 2
  Minimum inhibitory concentration: 8
[4]; C. glabrata clinical yeast strain 3
  Minimum inhibitory concentration: 8
[4]; C. glabrata clinical yeast strain 4
  Minimum inhibitory concentration: 64
[5]; Candida albicans clinical yeast strain 1
  Minimum inhibitory concentration: 16
[5]; Candida albicans clinical yeast strain 2
  Minimum inhibitory concentration: 8
[5]; Candida albicans clinical yeast strain 3
  Minimum inhibitory concentration: 8
[5]; Candida albicans clinical yeast strain 4
  Minimum inhibitory concentration: 16
[5]; Candida albicans clinical yeast strain 5
  Minimum inhibitory concentration: 8
[6]; C. parapsilosis clinical yeast strain 1
  Minimum inhibitory concentration: 8
[6]; C. parapsilosis clinical yeast strain 2
  Minimum inhibitory concentration: 8
[6]; C. parapsilosis clinical yeast strain 3
  Minimum inhibitory concentration: 8
[6]; C. parapsilosis clinical yeast strain 4
  Minimum inhibitory concentration: 8
[7]; Streptococcus pneumoniae clinical strain 1
  Minimum inhibitory concentration: 8
[7]; Streptococcus pneumoniae clinical strain 2
  Minimum inhibitory concentration: 4
[7]; Streptococcus pneumoniae clinical strain 3
  Minimum inhibitory concentration: 2
[7]; Streptococcus pneumoniae clinical strain 4
  Minimum inhibitory concentration: 4
[7]; Streptococcus pneumoniae clinical strain 5
  Minimum inhibitory concentration: 4
[8]; Enterobacter cloacae clinical strain 1
  Minimum inhibitory concentration: 1
[8]; Enterobacter cloacae clinical strain 2
  Minimum inhibitory concentration: 2
[8]; Enterobacter cloacae clinical strain 3
  Minimum inhibitory concentration: 2
[8]; Enterobacter cloacae clinical strain 4
  Minimum inhibitory concentration: 2
[8]; Enterobacter cloacae clinical strain 5
  Minimum inhibitory concentration: 1
[9]; Acinetobacter baumannii clinical strain 1
  Minimum inhibitory concentration: 4
[9]; Acinetobacter baumannii clinical strain 2
  Minimum inhibitory concentration: 4
[9]; Acinetobacter baumannii clinical strain 3
  Minimum inhibitory concentration: 4
[9]; Acinetobacter baumannii clinical strain 4
  Minimum inhibitory concentration: 4
[9]; Acinetobacter baumannii clinical strain 5
  Minimum inhibitory concentration: 4
[10]; Serratia marcescens clinical strain 1
  Minimum inhibitory concentration: 64
[10]; Serratia marcescens clinical strain 2
  Minimum inhibitory concentration: 64
[10]; Serratia marcescens clinical strain 3
  Minimum inhibitory concentration: 64
[10]; Serratia marcescens clinical strain 4
  Minimum inhibitory concentration: 64
[10]; Serratia marcescens clinical strain 5
  Minimum inhibitory concentration: 128
[11]; Proteus mirabilis clinical strain 1
  Minimum inhibitory concentration: >128
[11]; Proteus mirabilis clinical strain 2
  Minimum inhibitory concentration: 32
[11]; Proteus mirabilis clinical strain 3
  Minimum inhibitory concentration: 64
[11]; Proteus mirabilis clinical strain 4
  Minimum inhibitory concentration: >128
[11]; Proteus mirabilis clinical strain 5
  Minimum inhibitory concentration: >128
[12]; Staphylococcus aureus clinical strain 1
  Minimum inhibitory concentration: 1
[12]; Staphylococcus aureus clinical strain 2
  Minimum inhibitory concentration: 1
[12]; Staphylococcus aureus clinical strain 3
  Minimum inhibitory concentration: 1
[12]; Staphylococcus aureus clinical strain 4
  Minimum inhibitory concentration: 1
[12]; Staphylococcus aureus clinical strain 5
  Minimum inhibitory concentration: 1
[13]; Pseudomonas aeruginosa clinical strain 1
  Minimum inhibitory concentration: 4
[13]; Pseudomonas aeruginosa clinical strain 2
  Minimum inhibitory concentration: 4
[13]; Pseudomonas aeruginosa clinical strain 3
  Minimum inhibitory concentration: 4
[13]; Pseudomonas aeruginosa clinical strain 4
  Minimum inhibitory concentration: 2
[13]; Pseudomonas aeruginosa clinical strain 5
  Minimum inhibitory concentration: 2
